Activity calls are given as the source filed them. The calls are words filed in the database; no cut-off is given here.
Experiments:
[1] = target: T1, Caspase-7 (Homo sapiens, UniProt P55210); assay: Inhibition of human recombinant caspase-7 using Ac-DEVD-AMC as substrate after 10 mins by fluorescence assay
T1 sequence (P55210 whole entry): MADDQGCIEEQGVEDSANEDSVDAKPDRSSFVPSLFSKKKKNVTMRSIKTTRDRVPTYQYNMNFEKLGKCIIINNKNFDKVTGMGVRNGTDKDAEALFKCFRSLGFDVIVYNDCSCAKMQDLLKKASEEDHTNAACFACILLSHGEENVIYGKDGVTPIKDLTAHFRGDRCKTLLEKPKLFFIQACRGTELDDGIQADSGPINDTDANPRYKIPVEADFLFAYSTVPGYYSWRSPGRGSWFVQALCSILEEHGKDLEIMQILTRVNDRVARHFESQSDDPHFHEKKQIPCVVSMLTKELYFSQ

[2] = Solubility of the compound in water; type: physicochemical; details: buffer
[3] = tested on: Jurkat; assay: Antiapoptotic activity in human Jurkat T cells assessed as protection against camptothecin-induced apoptosis at 50 uM treated 2 hrs before camptothecin addition measured after 4 hrs using annexin V-FITC and 7-AAD staining by flow cytometry; type: functional, cell-based
[4] = target: T2, Caspase-3 (Homo sapiens, UniProt P42574); assay: Inhibition of human recombinant caspase-3 using […] as substrate after 10 mins by fluorescence assay
T2 sequence (P42574 whole entry): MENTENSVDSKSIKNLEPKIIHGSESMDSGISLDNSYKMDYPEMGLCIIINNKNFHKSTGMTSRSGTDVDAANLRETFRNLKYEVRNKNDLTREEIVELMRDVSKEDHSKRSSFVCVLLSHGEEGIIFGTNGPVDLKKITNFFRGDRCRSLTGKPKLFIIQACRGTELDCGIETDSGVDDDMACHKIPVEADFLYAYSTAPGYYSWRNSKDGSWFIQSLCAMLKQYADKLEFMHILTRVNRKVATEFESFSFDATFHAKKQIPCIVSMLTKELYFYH

| SMILES | IC50 [1] | solubility [2] | Activity [3] | IC50 [4] |
| --- | --- | --- | --- | --- |
| O=C(NCc1ccc(N2CCOCC2)cc1)n1sc2ccccc2c1=O | 248 µM | soluble | Active | – |
| O=C(Nc1ccc(N2CCOCC2)cc1)n1sc2ccccc2c1=O | 0.909 µM | Insoluble | – | 0.00115 µM |
| O=c1[nH]sc2ccccc12 | 137 µM | – | – | – |
| O=C(Cn1sc2ccccc2c1=O)Nc1ccc(N2CCOCC2)cc1 | 100 µM | – | – | – |

— ChEMBL document CHEMBL3232821, “1,2-benzisothiazol-3-one derivatives as a novel class of small-molecule caspase-3 inhibitors” (Bioorg Med Chem, 2014)
